{"source": "patent US20260166122A1", "about": "“USE OF MICROPEPTIDE MIAC” (NANJING ANJI BIOTECHNOLOGY CO., LTD, priority 2023, published 2026)", "key": {"[1]": {"test_system": "human esophageal carcinoma cells Eca-109", "assay_type": "cell-based", "settings": "72 h"}, "[2]": {"test_system": "human lymphoma cells Raji", "assay_type": "cell-based", "settings": "72 h", "experimental": "(§1) Human pancreatic cancer, hepatocellular carcinoma, colorectal cancer, ovarian cancer, cervical cancer, bladder cancer, melanoma, glioblastoma, neuroblastoma, glioma, osteosarcoma, myeloma, lymphoma, hematologic malignancies, and cholangiocarcinoma cells were cultured in an incubator at 37° C. with 5% CO2 until the density reached 90%, then digested and collected with trypsin, resuspended in a culture medium, and counted under a microscope; the cell concentration was adjusted to about 1.0×10^5 cells/mL; and the cell suspension was inoculated into a 96-well plate, with 100 μL per well, and incubated overnight in an incubator at 37° C. with 5% CO2. After the cells were completely attached to the wall, 100 μL of micropeptides MIAC with concentrations of 50 μM, 100 μM and 200 μM were added to form an administration group; and a culture medium without any medicament was used as a negative control group. After continuing incubation for 72 h, 100 μL of CCK8 was added to each well of the 96-well plate for dissolving. The absorbance OD was measured at a detection wavelength of 450 nm with a microplate reader, and the proliferation inhibition (PI) was calculated using the formula of PI (%)=1-administration group/negative control group. The experiment was repeated 3 times independently, the results were expressed as Mean±SD, and a statistical T test was performed, where *P<0.05 indicated a significant difference and **P<0.01 indicated an extremely significant difference."}, "[3]": {"test_system": "human glioma cells SHG-44", "assay_type": "cell-based", "settings": "72 h", "experimental": "as §1"}, "[4]": {"test_system": "human gastric carcinoma cells BGC-823", "assay_type": "cell-based", "settings": "72 h"}, "[5]": {"test_system": "human breast cancer cells MX-1", "assay_type": "cell-based", "settings": "72 h"}, "[6]": {"test_system": "human lung giant cell carcinoma cells 95-D", "assay_type": "cell-based", "settings": "72 h"}, "[7]": {"test_system": "human non-small cell lung cancer cells NCI-H1650", "assay_type": "cell-based", "settings": "72 h"}, "[8]": {"test_system": "cervical cancer Hela cells", "test": "transwell migration inhibition, Hela", "assay_type": "cell-based, human", "settings": "48 h", "experimental": "Human prostate cancer, cervical cancer, osteosarcoma, ovarian cancer, melanoma, and hepatocellular carcinoma cells were inoculated into transwell chambers, with 100 μL per well; for an administration group, 100 μL of a micropeptide MIAC was added to each of the chambers at a different dose; and no medicament was added to a blank group. Then, 0.6 mL of a complete medium comprising 10% FBS was added to transwell lower chambers to stimulate cell migration, followed by incubation at 37° C. with 5% CO2 for 48 h. The culture medium in the wells was discarded, and the cells were fixed with methanol at room temperature for 30 min, stained with 0.1% crystal violet at room temperature for 10 min, and rinsed thoroughly with clear water; the unmigrated cells in the upper layer were wiped off with a cotton swab; and the migrated cells were observed under a microscope, and four visual fields were selected for photography and counting. The migration inhibition rate (MI) was calculated using the following formula: […]\nwhere Ntest represents the number of migrated cells in the administration group, and Ncontrol represents the number of migrated cells in the blank control group."}, "[9]": {"test_system": "human gastric carcinoma cells BGC-803", "assay_type": "cell-based", "settings": "72 h"}, "[10]": {"test_system": "human hepatocellular carcinoma Hep3B cells", "test": "subcutaneously transplanted Hep3B tumor in nude mice", "assay_type": "in vivo, BALB/c nude mouse", "settings": "Hep3B subcutaneous transplanted tumor, BALB/c nude mice, 5, 10, 15, 20 mg/kg; dose-dependent", "experimental": "Human hepatocellular carcinoma Hep3B cells were cultured in large quantities and digested with a 0.25% trypsin solution; and the cell suspension after digestion termination was centrifuged at 1000 rpm for 5 minutes, and the cells were resuspended in a serum-free MEM medium and then counted to adjust the cell concentration to 5×10^7 cells/mL. Each BALB/c nude mouse (4-6 weeks old, female, weighing 14-16 g, adaptively housed in an SPF animal breeding room for 1 week) was inoculated with 100 μL of the cell suspension in the left axilla, with an inoculated cell amount of 5×10^6 cells. After inoculation, the tumor growth at the inoculation site of nude mice was closely observed. On the 7th day after inoculation, white nodules appeared at the inoculation site, which could be moved subcutaneously upon touch. As the tumor tissue grew, a hard tumor mass gradually formed at the inoculation site. […] The volume of the transplanted tumor was measured and recorded every two days, and the formula for calculating the tumor volume (TV) was: tumor volume=0.5×a×b^2, where a is the length (mm) of the transplanted tumor and b is the width (mm) of the transplanted tumor."}, "[11]": {"test_system": "human breast cancer cells MDA-MB-231", "assay_type": "cell-based", "settings": "72 h"}}, "note": "Where two headings read alike, the source gives them in different places. Marks after values point to notes of the source that are not given here. Ends that are not written are not given here.", "data": [{"sequence": "MERAGVPGFSPRRSSVEAKMQSTSCSVRKSSTVTAWPAVVLLLSWGQRRGG [MIAC, micropeptide inhibiting actin cytoskeleton]", "values": [{"measurement": "OD", "setting": "[1]; Eca-109, 50 μM", "value": "1.072 ± 0.037"}, {"measurement": "OD", "setting": "[1]; Eca-109, 100 μM", "value": "0.656 ± 0.045"}, {"measurement": "OD", "setting": "[1]; Eca-109, 200 μM", "value": "0.394 ± 0.039"}, {"measurement": "OD", "setting": "[2]; 50 μM", "value": "0.964 ± 0.037"}, {"measurement": "OD", "setting": "[2]; 100 μM", "value": "0.687 ± 0.019**"}, {"measurement": "OD", "setting": "[2]; 200 μM", "value": "0.421 ± 0.029**"}, {"measurement": "OD", "setting": "[3]; SHG-44, 50 μM", "value": "1.201 ± 0.026"}, {"measurement": "OD", "setting": "[3]; SHG-44, 100 μM", "value": "0.838 ± 0.067**"}, {"measurement": "OD", "setting": "[3]; SHG-44, 200 μM", "value": "0.393 ± 0.021**"}, {"measurement": "OD", "setting": "[4]; BGC-823, 50 μM", "value": "0.950 ± 0.045"}, {"measurement": "OD", "setting": "[4]; BGC-823, 100 μM", "value": "0.556 ± 0.029"}, {"measurement": "OD", "setting": "[4]; BGC-823, 200 μM", "value": "0.327 ± 0.025"}, {"measurement": "OD", "setting": "[5]; MX-1, 50 μM", "value": "1.020 ± 0.028"}, {"measurement": "OD", "setting": "[5]; MX-1, 100 μM", "value": "0.808 ± 0.102"}, {"measurement": "OD", "setting": "[5]; MX-1, 200 μM", "value": "0.630 ± 0.051"}, {"measurement": "OD", "setting": "[6]; 50 μM", "value": "1.188 ± 0.022"}, {"measurement": "OD", "setting": "[6]; 100 μM", "value": "0.863 ± 0.054"}, {"measurement": "OD", "setting": "[6]; 200 μM", "value": "0.341 ± 0.010"}, {"measurement": "OD", "setting": "[7]; NCI-H1650, 50 μM", "value": "1.127 ± 0.022"}, {"measurement": "OD", "setting": "[7]; NCI-H1650, 100 μM", "value": "0.955 ± 0.031"}, {"measurement": "OD", "setting": "[7]; NCI-H1650, 200 μM", "value": "0.779 ± 0.057"}, {"measurement": "Inhibition rate (%)", "setting": "[8]; 6.25 μmol/L", "value": 12.76, "unit": "%"}, {"measurement": "Number of migrated cells", "setting": "[8]; 6.25 μmol/L", "value": "475.0 ± 53.3"}, {"measurement": "Inhibition rate (%)", "setting": "[8]; 12.5 μmol/L", "value": 39.23, "unit": "%"}, {"measurement": "Number of migrated cells", "setting": "[8]; 12.5 μmol/L", "value": "296.8 ± 45.0"}, {"measurement": "Inhibition rate (%)", "setting": "[8]; 25 μmol/L", "value": 33.83, "unit": "%"}, {"measurement": "Number of migrated cells", "setting": "[8]; 25 μmol/L", "value": "360.3 ± 119.4"}, {"measurement": "Inhibition rate (%)", "setting": "[8]; 50 μmol/L", "value": 61.30, "unit": "%"}, {"measurement": "Number of migrated cells", "setting": "[8]; 50 μmol/L", "value": "210.5 ± 66.6"}, {"measurement": "OD", "setting": "[9]; BGC-803, 50 μM", "value": "1.379 ± 0.025"}, {"measurement": "OD", "setting": "[9]; BGC-803, 100 μM", "value": "0.960 ± 0.059"}, {"measurement": "OD", "setting": "[9]; BGC-803, 200 μM", "value": "0.715 ± 0.015"}, {"measurement": "in vivo tumor growth (tumor volume, tumor weight) versus blank control", "setting": "[10]", "value": "significantly inhibit the in vivo tumor growth"}, {"measurement": "OD", "setting": "[11]; MDA-MB-231, 50 μM", "value": "0.777 ± 0.050"}, {"measurement": "OD", "setting": "[11]; MDA-MB-231, 100 μM", "value": "0.378 ± 0.058"}, {"measurement": "OD", "setting": "[11]; MDA-MB-231, 200 μM", "value": "0.206 ± 0.016"}]}]}
